Assay results published in ChEMBL document CHEMBL4373717, “Coumarin-containing hybrids and their anticancer activities” (Eur J Med Chem, 2019).
Values after ≈ are worked out from the molar mass of the structure shown. Each block holds one compound with its values, some of them ahead of it.

Columns and labels:
WiDr = assay: Growth inhibition of human WiDr cells; type: functional
MCF7 [1] = assay: Growth inhibition of human MCF7 cells; type: functional
PANC-1 = assay: Growth inhibition of human PANC1 cells; type: functional
HepG2 = assay: Growth inhibition of human HepG2 cells; type: functional
T-24 = assay: Growth inhibition of human T24 cells; type: functional
SN12C = assay: Growth inhibition of human SN12C cells; type: functional
K562 [2] = assay: Growth inhibition of human K562 cells; type: functional
BXPC-3 = assay: Growth inhibition of human BxPC3 cells; type: functional
[3] = Growth inhibition of human KATO III cells; type: functional
SNU1 = assay: Growth inhibition of human SNU1 cells; type: functional
OVCAR-8 = assay: Growth inhibition of human OVCAR8 cells; type: functional
SK-OV-3 = assay: Growth inhibition of human SKOV3 cells; type: functional
AGS = assay: Growth inhibition of human AGS cells; type: functional
MDA-MB-231 [4] = assay: Cytotoxicity against human MDA-MB-231 cells assessed as reduction in cell viability after 24 hrs by MTT assay; type: functional, cell-based; settings: mda-mb-231
MDA-MB-231 [5] = assay: Potency index, ratio of doxorubicin IC50 to compound IC50 for cytotoxicity against human MDA-MB-231 cells in normoxic condition; type: functional
MDA-MB-231 [6] = assay: Potency index, ratio of cisplatin IC50 to compound IC50 for cytotoxicity against human MDA-MB-231 cells in normoxic condition; type: functional
MDA-MB-231 [7] = assay: Potency index, ratio of cisplatin IC50 to compound IC50 for cytotoxicity against human MDA-MB-231 cells in hypoxic condition; type: functional
MDA-MB-231 [8] = assay: Potency index, ratio of doxorubicin IC50 to compound IC50 for cytotoxicity against human MDA-MB-231 cells in hypoxic condition; type: functional
NCI-H460 [9] = assay: Growth inhibition of human H460 cells; type: functional
NCI-H1650 = assay: Growth inhibition of human NCI-H1650 cells; type: functional
A549 [10] = assay: Growth inhibition of human A549 cells; type: functional
OVCAR-4 = assay: Anticancer activity against human OVCAR4 cells; type: functional
SNB-75 = assay: Anticancer activity against human SNB75 cells; type: functional
SF-268 [11] = assay: Potency index, ratio of doxorubicin GI50 to compound GI50 for growth inhibition of human SF268 cells; type: functional
MCF7 [12] = assay: Potency index, ratio of doxorubicin GI50 to compound GI50 for growth inhibition of human MCF7 cells; type: functional
NCI-H460 [13] = assay: Growth inhibition of human NCI-H460 cells; type: functional
SF-268 [14] = assay: Growth inhibition of human SF268 cells; type: functional
NCI-H460 [15] = assay: Potency index, ratio of doxorubicin GI50 to compound GI50 for growth inhibition of human NCI-H460 cells; type: functional
MDA-MB-231 [16] = assay: Anticancer activity against human MDA-MB-231 cells by MTT assay; type: functional, cell-based
HeLa [17] = assay: Anticancer activity against human HeLa cells by MTT assay; type: functional, cell-based
A549 [18] = assay: Anticancer activity against human A549 cells by MTT assay; type: functional, cell-based
HeLa [19] = assay: Potency index, ratio of doxorubicin IC50 to compound IC50 for anticancer activity against human HeLa cells; type: functional
MDA-MB-231 [20] = assay: Potency index, ratio of doxorubicin IC50 to compound IC50 for anticancer activity against human MDA-MB-231 cells; type: functional
K562 [21] = assay: Potency index, ratio of doxorubicin IC50 to compound IC50 for anticancer activity against human K562 cells; type: functional
A549 [22] = assay: Potency index, ratio of doxorubicin IC50 to compound IC50 for anticancer activity against human A549 cells; type: functional
K562 [23] = assay: Anticancer activity against human K562 cells by MTT assay; type: functional, cell-based

Structure (SMILES): COc1ccc(NC(=O)c2ccc(-n3cc(COc4cc(=O)oc5ccccc45)nn3)cc2)cc1OC
IC50 (MDA-MB-231 [4]): 0.03 to 91.6 µM
Ratio IC50 (MDA-MB-231 [5]): 20 - 156
Ratio IC50 (MDA-MB-231 [6]): 20 - 156
Ratio IC50 (MDA-MB-231 [7]): 20 - 156
Ratio IC50 (MDA-MB-231 [8]): 20 - 156

Structure (SMILES): COc1ccc(C(=O)CC(c2c(O)c3ccccc3oc2=O)c2c(O)c3ccccc3oc2=O)c(O)c1
GI50 (NCI-H460 [9]): 35.7 µM
GI50 (NCI-H1650): 50.1 µM
GI50 (A549 [10]): 33.3 µM

Structure (SMILES): Nc1ccc2c(-c3nc4ccc(Br)c(O)c4s3)cc(=O)oc2c1
GI50 (OVCAR-4): 330 nM
GI50 (SNB-75): 240 nM

Second part, led by results:

GI50 (MCF7 [1]): 70 to 410 nM
GI50 (PANC-1): 70 to 410 nM
GI50 (HepG2): 70 to 410 nM
GI50 (K562 [2]): 70 to 410 nM
GI50 (BXPC-3): 70 to 410 nM
GI50 (SNU1): 70 to 410 nM
GI50 (OVCAR-8): 70 to 410 nM
GI50 (SK-OV-3): 70 to 410 nM
GI50 (AGS): 70 to 410 nM
Structure (SMILES): CCN(CC)c1ccc2cc(-c3nc4ccccc4n3C)c(=O)oc2c1
GI50 (WiDr): 70 to 410 nM
GI50 (T-24): 70 to 410 nM
GI50 (SN12C): 70 to 410 nM
GI50 [3]: 70 to 410 nM

GI50 (MCF7 [1]): 50 to 80 nM
GI50 (NCI-H460 [13]): 50 to 80 nM
Structure (SMILES): O=c1oc2ccccc2cc1-c1nc2ccccc2n1C(=S)Nc1ccccc1
RatioGI50 (SF-268 [11]): 1.5 - 2
RatioGI50 (MCF7 [12]): 1.5 - 2
GI50 (SF-268 [14]): 50 to 80 nM
RatioGI50 (NCI-H460 [15]): 1.5 - 2

IC50 (MDA-MB-231 [16]): 0.16 to 0.31 µg/mL (≈ 0.287 to 0.556 µM)
IC50 (HeLa [17]): 0.16 to 0.31 µg/mL (≈ 0.287 to 0.556 µM)
IC50 (A549 [18]): 0.16 to 0.31 µg/mL (≈ 0.287 to 0.556 µM)
IC50 (K562 [23]): 0.16 to 0.31 µg/mL (≈ 0.287 to 0.556 µM)
Structure (SMILES): COc1ccc(-n2nc(C)n(-n3c(-c4cc5ccccc5oc4=O)cs/c3=N\c3ccc(Cl)cc3)c2=O)cc1
Ratio IC50 (HeLa [19]): 1.9 - 3.3
Ratio IC50 (MDA-MB-231 [20]): 1.9 - 3.3
Ratio IC50 (K562 [21]): 1.9 - 3.3
Ratio IC50 (A549 [22]): 1.9 - 3.3
